# Measurements: patent US11292788B2, “IL-17 and IFN-gamma inhibition for the treatment of autoimmune diseases and chronic inflammation” (Immunic AG, priority 2017, dated 2022)
# Like-named read-outs stand apart in the source and are kept apart here.
# Experiments:
# Format in all cases: cell-based
# IL-17F = assay: Cytokine assay: IL-17F production by human PBMC stimulated with PHA; settings: IC50 class, read-out: IL-17F Inhib.
# Procedure: (§1) Cytokine Assay: Analysis of Proliferation of and Cytokine Production by Human PBMC Stimulated with PHA
# (§2) Peripheral blood mononuclear cells (PBMC) from healthy human donors were purified using Accuspin™ System-Histopaque-1077 (Sigma) according to the protocol recommended by the manufacturer. Purified PBMC were then washed twice with phosphate-buffered saline (PBS) and resuspended in RPMI1640 culture medium supplemented with 10% dialyzed heat inactivated fetal calf serum, 1.5 mM L-glutamine, 100 U penicillin/ml, and […] (all from PAN Biotech, Aidenbach, Germany). For stimulation, PBMC were seeded at 1×10^5 cells/well, activated with 2 μg/ml phytohaemagglutinin (PHA, Sigma) and incubated with the test compounds for 48 hours. IL-17A, IL-17F and INF-γ were then determined in the culture supernatant using a Luminex BioPlex system, following the manufacturer's instructions (BioRad, Munich, Germany). For screening, compounds were used at 10, 1, 0.1 and 0.01 μM. To determine the IC50, compounds were titrated semilogarithmically.
# (§3) Cytokines were determined in the aforementioned culture supernatant using the following methods: IL-17A was measured using the human homodimer IL-17A ELISA Ready Set Go Kit from eBioscience (Frankfurt, Germany); IL-17F using the human IL-17F ELI-Pair from Hölzel DiagnosticaGmBH (Köln, Germany); and IFN-γ using the OptEIA human IFN-g ELISA from BD Bioscience (Heidelberg, Germany), all following the manufacturer's instructions.
# IL-17A = assay: Cytokine assay: IL-17A production by human PBMC stimulated with PHA; settings: IC50 class, read-out: IL-17A Inhib.
# Procedure: as §1, §2, §3
# INF-γ = assay: Cytokine assay: INF-γ production by human PBMC stimulated with PHA; settings: IC50 class, read-out: IFN-gamma Inhib.
# Procedure: as §1, §2, §3
"IC50 (IL-17F; Homo sapiens, PBMC) [nM]","IC50 (IL-17A; Homo sapiens, PBMC) [nM]","IC50 (INF-γ; Homo sapiens, PBMC) [nM]",IC50 (IL-17F) [nM],IC50 (IL-17A) [nM],IC50 (INF-γ) [nM],Structure (SMILES)
500 to 5000,500 to 5000,500 to 5000,–,–,–,"C[C@@H](O)Cn1ncc(-c2onc(-c3c(F)cccc3Cl)c2C(=O)NC2CC2)c1C(F)(F)F [Example 45, 3-(2-chloro-6-fluorophenyl)-N-cyclopropyl-5-(1-((2R)-2-hydroxypropyl)-5-(trifluoromethyl)-1H-pyrazol-4-yl)isoxazole-4-carboxamide]"
50 to 500,500 to 5000,50 to 500,–,–,–,"C[C@@H](O)Cn1ncc(-c2onc(-c3c(F)cccc3Cl)c2C(=O)NC2CCC2)c1C(F)(F)F [Example 46, 3-(2-chloro-6-fluorophenyl)-N-cyclobutyl-5-(1-((2R)-2-hydroxypropyl)-5-(trifluoromethyl)-1H-pyrazol-4-yl)isoxazole-4-carboxamide]"
50 to 500,50 to 500,50 to 500,–,–,–,"Cc1c(-c2onc(-c3ccccc3Cl)c2C(=O)OC2COC2)cnn1C[C@H](C)O [Example 47, oxetan-3-yl 3-(2-chlorophenyl)-5-{1-[(2S)-2-hydroxypropyl]-5-methyl-1H-pyrazol-4-yl}-1,2-oxazole-4-carboxylate]"
–,–,–,500 to 5000,500 to 5000,500 to 5000,"C[C@]1(O)C[C@H](n2ncc(-c3onc(-c4ccccc4Cl)c3C(=O)OC3CC3)c2C(F)(F)F)C1 [Example 48, cyclopropyl 3-(2-chlorophenyl)-5-(1-(3-hydroxy-3-methylcyclobutyl)-5-(trifluoromethyl)-1H-pyrazol-4-yl)isoxazole-4-carboxylate]"
< 50,50 to 500,< 50,–,–,–,"C[C@]1(O)C[C@H](n2ncc(-c3onc(-c4c(F)cccc4Cl)c3C(=O)OC3CC3)c2C(F)(F)F)C1 [Example 50, cyclopropyl 3-(2-chloro-6-fluorophenyl)-5-(1-(3-hydroxy-3-methylcyclobutyl)-5-(trifluoromethyl)-1H-pyrazol-4-yl)isoxazole-4-carboxylate]"
50 to 500,50 to 500,50 to 500,–,–,–,"Cc1c(-c2onc(-c3ccccc3Cl)c2C(=O)OC2COC2)cnn1[C@H]1C[C@@](C)(O)C1 [Example 52, oxetan-3-yl 3-(2-chlorophenyl)-5-(1-(3-hydroxy-3-methylcyclobutyl)-5-methyl-1H-pyrazol-4-yl)isoxazole-4-carboxylate]"
–,–,–,500 to 5000,500 to 5000,50 to 500,"Cc1c(-c2onc(-c3ccccc3Cl)c2C(=O)OC2CC2)cnn1[C@H]1C[C@@](C)(O)C1 [Example 54, cyclopropyl 3-(2-chlorophenyl)-5-{5-methyl-1-[3-hydroxy-3-methylcyclobutyl]-1H-pyrazol-4-yl}-1,2-oxazole-4-carboxylate]"
50 to 500,500 to 5000,50 to 500,–,–,–,"CC(C)(O)Cn1ncc(-c2onc(-c3c(F)cccc3Cl)c2C(=O)OC2COC2)c1C(F)(F)F [Example 57, oxetan-3-yl 3-(2-chloro-6-fluorophenyl)-5-[1-(2-hydroxy-2-methylpropyl)-5-(trifluoromethyl)-1H-pyrazol-4-yl]-1,2-oxazole-4-carboxylate]"
≥ 5000,≥ 5000,≥ 5000,–,–,–,"CC(C)(O)Cn1ncc(-c2onc(-c3c(F)cccc3Cl)c2CO)c1C(F)(F)F [Example 63, 1-(4-(3-(2-chloro-6-fluorophenyl)-4-(hydroxymethyl)isoxazol-5-yl)-5-(trifluoromethyl)-1H-pyrazol-1-yl)-2-methylpropan-2-ol]"
≥ 5000,≥ 5000,500 to 5000,–,–,–,"C[C@]1(O)C[C@@H](n2ncc(-c3onc(-c4ccccc4Cl)c3CO)c2C(F)(F)F)C1 [Example 64, 3-(4-(3-(2-chlorophenyl)-4-(hydroxymethyl)-1,2-oxazol-5-yl)-5-(trifluoromethyl)-1H-pyrazol-1-yl)-1-methylcyclobutan-1-ol]"
500 to 5000,500 to 5000,50 to 500,–,–,–,"COCc1c(-c2c(F)cccc2Cl)noc1-c1cnn(C[C@H](C)O)c1C(F)(F)F [Example 68, (2S)-1-(4-(3-(2-chloro-6-fluorophenyl)-4-(methoxymethyl)isoxazol-5-yl)-5-(trifluoromethyl)-1H-pyrazol-1-yl)propan-2-ol]"
50 to 500,50 to 500,< 50,–,–,–,"COCc1c(-c2ccccc2Cl)noc1-c1cnn([C@H]2C[C@@](C)(O)C2)c1C [Example 72, 3-{4-[3-(2-chlorophenyl)-4-(methoxymethyl)-1,2-oxazol-5-yl]-5-methyl-1H-pyrazol-1-yl}-1-methylcyclobutan-1-ol]"
500 to 5000,500 to 5000,500 to 5000,–,–,–,"COCc1c(-c2ccccc2Cl)noc1-c1cnn([C@H]2C[C@](C)(O)C2)c1C [Example 73, 3-{4-[3-(2-chlorophenyl)-4-(methoxymethyl)-1,2-oxazol-5-yl]-5-methyl-1H-pyrazol-1-yl}-1-methylcyclobutan-1-ol]"
50 to 500,50 to 500,50 to 500,–,–,–,"COCc1c(-c2ccccc2Cl)noc1-c1cnn([C@H]2C[C@@](C)(O)C2)c1C(F)(F)F [Example 74, 3-(4-(3-(2-chlorophenyl)-4-(methoxymethyl)isoxazol-5-yl)-5-(trifluoromethyl)-1H-pyrazol-1-yl)-1-methylcyclobutan-1-ol]"

# The next lines start with the molecule.
Structure (SMILES),"IC50 (IL-17F; Homo sapiens, PBMC) [nM]","IC50 (IL-17A; Homo sapiens, PBMC) [nM]","IC50 (INF-γ; Homo sapiens, PBMC) [nM]",IC50 (IL-17F) [nM],IC50 (IL-17A) [nM],IC50 (INF-γ) [nM]
"Cc1nnc(-c2c(-c3c(F)cccc3Cl)noc2-c2cnn(CC(C)(C)O)c2C(F)(F)F)o1 [Example 30, 1-(4-(3-(2-chloro-6-fluorophenyl)-4-(5-methyl-1,3,4-oxadiazol-2-yl)isoxazol-5-yl)-5-(trifluoromethyl)-1H-pyrazol-1-yl)-2-methylpropan-2-ol]",500 to 5000,50 to 500,500 to 5000,–,–,–
"CC(=O)c1c(-c2c(F)cccc2Cl)noc1-c1cnn(CC(C)(C)O)c1C(F)(F)F [Example 34, 1-(3-(2-chloro-6-fluorophenyl)-5-(1-(2-hydroxy-2-methylpropyl)-5-(trifluoromethyl)-1H-pyrazol-4-yl)-1,2-oxazol-4-yl)ethanone]",500 to 5000,500 to 5000,500 to 5000,–,–,–
"CC(C)(O)Cn1ncc(-c2onc(-c3c(F)cccc3Cl)c2C(=O)CC2CCC2)c1C(F)(F)F [Example 36, 1-[3-(2-chloro-6-fluorophenyl)-5-[1-(2-hydroxy-2-methylpropyl)-5-(trifluoromethyl)-1H-pyrazol-4-yl]-1,2-oxazol-4-yl]-2-cyclobutylethan-1-one]",50 to 500,500 to 5000,50 to 500,–,–,–
"C=CCCC(=O)c1c(-c2c(F)cccc2Cl)noc1-c1cnn(CC(C)(C)O)c1C(F)(F)F [Example 37, 1-[3-(2-chloro-6-fluorophenyl)-5-[1-(2-hydroxy-2-methylpropyl)-5-(trifluoromethyl)-1H-pyrazol-4-yl]-1,2-oxazol-4-yl]pent-4-en-1-one]",50 to 500,50 to 500,50 to 500,–,–,–
"COCC(=O)c1c(-c2c(F)cccc2Cl)noc1-c1cnn(CC(C)(C)O)c1C(F)(F)F [Example 39, 1-[3-(2-chloro-6-fluorophenyl)-5-[1-(2-hydroxy-2-methylpropyl)-5-(trifluoromethyl)-1H-pyrazol-4-yl]-1,2-oxazol-4-yl]-2-methoxyethan-1-one]",≥ 5000,500 to 5000,500 to 5000,–,–,–
"COCC(=O)c1c(-c2c(F)cccc2Cl)noc1-c1cnn(C[C@@H](C)O)c1C(F)(F)F [Example 40, 1-[3-(2-chloro-6-fluorophenyl)-5-{1-[(2R)-2-hydroxypropyl]-5-(trifluoromethyl)-1H-pyrazol-4-yl}-1,2-oxazol-4-yl]-2-methoxyethan-1-one]",500 to 5000,500 to 5000,500 to 5000,–,–,–
"CC(C)(O)Cn1ncc(-c2onc(-c3c(F)cccc3Cl)c2C(=O)NC2CCCC2)c1C(F)(F)F [Example 41, 3-(2-chloro-6-fluorophenyl)-N-cyclopentyl-5-(1-(2-hydroxy-2-methylpropyl)-5-(trifluoromethyl)-1H-pyrazol-4-yl)isoxazole-4-carboxamide]",≥ 5000,≥ 5000,≥ 5000,–,–,–
"CC(C)(O)Cn1ncc(-c2onc(-c3c(F)cccc3Cl)c2C(=O)NC2CC2)c1C(F)(F)F [Example 42, 3-(2-chloro-6-fluorophenyl)-N-cyclopropyl-5-(1-(2-hydroxy-2-methylpropyl)-5-(trifluoromethyl)-1H-pyrazol-4-yl)isoxazole-4-carboxamide]",≥ 5000,≥ 5000,≥ 5000,–,–,–
"CC(C)(O)Cn1ncc(-c2onc(-c3c(F)cccc3Cl)c2C(=O)NC2CCC2)c1C(F)(F)F [Example 43, 3-(2-chloro-6-fluorophenyl)-N-cyclobutyl-5-(1-(2-hydroxy-2-methylpropyl)-5-(trifluoromethyl)-1H-pyrazol-4-yl)isoxazole-4-carboxamide]",500 to 5000,500 to 5000,500 to 5000,–,–,–
